Test results as given in patent US20170197935A1, “INHIBITORS OF DNA GYRASE FOR THE TREATMENT OF BACTERIAL INFECTIONS” (Vitas Pharma Research Private Limited, priority 2012, published 2017).
≈ marks a conversion by molar mass, not a printed value. Like-named read-outs stand apart in the source and are kept apart here.

Legend:
[1] = test system: Staphylococcus aureus (ATCC 29213); test: MIC by microbroth dilution, Staphylococcus aureus ATCC 29213; format: cell-based; settings: ATCC29213
Procedure: (§1) Shown below are the microbiological activities of representative compounds of Formula I of the invention. The compounds were tested by the microbroth dilution method (National committee for Clinical Laboratory Standards, 2011, […]-08) and the Minimum Inhibitory Concentration (MIC) was determined.

[2] = test system: Methicillin resistant Staphylococcus aureus (ATCC 33591); test: MIC by microbroth dilution, MRSA ATCC 33591; format: cell-based
Procedure: (§2) Shown below are the microbiological activities of representative compounds of Formula I of the invention. The compounds were tested by the microbroth dilution method (National committee for Clinical Laboratory Standards, 2011, M07-08) and the Minimum Inhibitory Concentration (MIC) was determined.
(§3) Analysis of microbiological activity of compounds shown below are the microbiological activities of representative compounds of Formula II of the invention. The compounds were tested by the microbroth dilution method as per the reference in Example 1.

[3] = test system: Streptococcus pneumoniae (ATCC 6301); test: MIC by microbroth dilution, Streptococcus pneumoniae ATCC 6301; format: cell-based; settings: ATCC6301
Procedure: as §1

[4] = test system: Enterococcus faecalis (ATCC 29212); test: MIC by microbroth dilution, Enterococcus faecalis ATCC 29212; format: cell-based; settings: ATCC29212
Procedure: as §1

[5] = test system: Moraxella catarrhalis (ATCC 8176); test: MIC by microbroth dilution, Moraxella catarrhalis ATCC 8176; format: cell-based; settings: ATCC8176
Procedure: as §1

E. coli (ATCC 25922) = test: MIC by microbroth dilution, E. coli ATCC 25922; format: cell-based; settings: Escherichia coli
Procedure: as §2, §3

E. coli Gyrase = target: T1, E. coli Gyrase (Escherichia coli, UniProt P0AES4+P0AES6); test: in vitro Gyrase supercoiling assay (Inspiralis kit); format: biochemical; settings: 1 hour at 37° C., read-out: % inhibition of DNA supercoiling activity; for inhibition at 0.1 µM: 0.1 μM compound; for inhibition at 1 µM: 1 μM compound
T1 construct: purchased Inspiralis
Procedure: To test for target specificity, the activity of compounds was evaluated in an in vitro Gyrase assay using recombinant Gyrase protein as per the instructions of the assay kit (Inspiralis). The assay measures the ability of E. coli Gyrase to convert relaxed plasmid DNA into the supercoiled form. The enzyme is incubated with the substrate (relaxed DNA) in the presence and absence of compounds for 1 hour at 37° C. and the DNA is run on a gel at low voltage for several hours. The gel is then stained with Ethidium bromide and DNA in the different forms is quantified using DNA imaging and quantification software (Image Lab). The activity of the enzyme is proportional to the amount of supercoiled form detected.

[6] = test system: K. pneumoniae (ATCC 700603); test: MIC by microbroth dilution, K. pneumoniae ATCC 700603; format: cell-based; settings: Klebsiella pneumoniae, ATCC700603, Formula I compounds
Procedure: as §2, §3

E. faecalis ATCC 51299 = test: MIC by microbroth dilution, E. faecalis ATCC 51299; format: cell-based; settings: Enterococcus faecalis, ATCC51299, Formula II compounds, read-out: Minimum Inhibitory Concentration (MIC) E. faecalis ATCC 51299
Procedure: as §2, §3

[7] = ATCC33591, Formula I compounds, read-out: MIC Methicillin resistant Staphylococcus aureus (ATCC 33591)
[8] = ATCC25922, Formula I compounds, read-out: MIC E. coli (ATCC 25922)
[9] = Formula II compounds, read-out: Minimum Inhibitory Concentration (MIC) MRSA ATCC 33591
[10] = ATCC25922, Formula II compounds, read-out: Minimum Inhibitory Concentration (MIC) E. coli ATCC 25922

SMILES	MIC [6]	MIC [2, 9]	MIC (E. coli (ATCC 25922); [10])	MIC (E. faecalis ATCC 51299)	MIC [1]	MIC [2, 7]	MIC [3]	MIC [4]	MIC [5]	MIC (E. coli (ATCC 25922); [8])	inhibition at 0.1 µM (E. coli Gyrase)	inhibition at 1 µM (E. coli Gyrase)
COc1ccc2ncc(C#N)c(CCN3CCC(NCc4cc([N+](=O)[O-])ccn4)CC3)c2c1 [VT-03-00079]	–	–	–	–	2 µg/mL (≈ 4.48 µM)	2 µg/mL (≈ 4.48 µM)	2 µg/mL (≈ 4.48 µM)	32 µg/mL (≈ 71.7 µM)	4 µg/mL (≈ 8.96 µM)	32 µg/mL (≈ 71.7 µM)	16.7%	87.6%
COc1ccc2ncc(C#N)c(CCN3CCC(NCc4ccc(N(C)C)c([N+](=O)[O-])c4)CC3)c2c1 [VT-03-00064]	> 32 µg/mL	–	–	–	0.12 µg/mL (≈ 0.246 µM)	0.25 µg/mL (≈ 0.512 µM)	0.12 µg/mL (≈ 0.246 µM)	2 µg/mL (≈ 4.09 µM)	0.25 µg/mL (≈ 0.512 µM)	4 µg/mL (≈ 8.19 µM)	89.3%	98.1%
COc1ccc2ncc(C#N)c(CCN3CCC(NCc4ccc(F)c([N+](=O)[O-])c4)CC3)c2c1 [VT-03-00048]	> 32 µg/mL	–	–	–	0.12 µg/mL (≈ 0.259 µM)	0.5 µg/mL (≈ 1.08 µM)	0.5 µg/mL (≈ 1.08 µM)	4 µg/mL (≈ 8.63 µM)	1 µg/mL (≈ 2.16 µM)	8 µg/mL (≈ 17.3 µM)	97.5%	97.3%
COc1ccc2ncc(=O)n(CCN3CCC(NCc4ccc(Br)c([N+](=O)[O-])c4)CC3)c2c1 [VT-03-00066]	> 32 µg/mL	–	–	–	0.5 µg/mL (≈ 0.968 µM)	1 µg/mL (≈ 1.94 µM)	1 µg/mL (≈ 1.94 µM)	4 µg/mL (≈ 7.75 µM)	4 µg/mL (≈ 7.75 µM)	16 µg/mL (≈ 31 µM)	55.9%	89.9%
CNC(=O)c1ccc2ncc(=O)n(CCN3CCC(NCc4ccc(C)c(F)c4)CC3)c2c1 [VT-03-00109]	–	1 µg/mL (≈ 2.21 µM)	16 µg/mL (≈ 35.4 µM)	2 µg/mL (≈ 4.43 µM)	–	–	–	–	–	–	–	–
COc1ccc2ncc(C#N)c(CCN3C4CCC3CC(NCc3cc5c(cn3)OCS5)C4)c2c1 (stereo not drawn) [VT-03-00014]	> 128 µg/mL	–	–	–	2 µg/mL (≈ 4.1 µM)	4 µg/mL (≈ 8.2 µM)	2 µg/mL (≈ 4.1 µM)	4 µg/mL (≈ 8.2 µM)	4 µg/mL (≈ 8.2 µM)	32 µg/mL (≈ 65.6 µM)	–	–
COc1ccc2ncc(C#N)c(CCN3CCC(NC(=O)c4ccc([N+](=O)[O-])c(F)c4)CC3)c2c1 [VT-03-00055]	> 32 µg/mL	–	–	–	1 µg/mL (≈ 2.09 µM)	4 µg/mL (≈ 8.38 µM)	0.03 µg/mL (≈ 0.0628 µM)	0.25 µg/mL (≈ 0.524 µM)	> 32 µg/mL	> 32 µg/mL	52.7%	71%
COc1ccc2ncc(C#N)c(CCN3C4CCC3CC(NCc3cc5c(cc3F)OCCO5)C4)c2c1 (stereo not drawn) [VT-03-00031]	> 32 µg/mL	–	–	–	1 µg/mL (≈ 1.99 µM)	2 µg/mL (≈ 3.98 µM)	1 µg/mL (≈ 1.99 µM)	2 µg/mL (≈ 3.98 µM)	4 µg/mL (≈ 7.96 µM)	16 µg/mL (≈ 31.8 µM)	–	–
COc1ccc2ncc(C#N)c(CCN3CCC(NCc4cc5c(c([N+](=O)[O-])c4)OCO5)CC3)c2c1 [VT-03-00077]	> 16 µg/mL	–	–	–	0.06 µg/mL (≈ 0.123 µM)	0.12 µg/mL (≈ 0.245 µM)	0.12 µg/mL (≈ 0.245 µM)	1 µg/mL (≈ 2.04 µM)	0.25 µg/mL (≈ 0.511 µM)	2 µg/mL (≈ 4.09 µM)	38.8%	88.5%
COc1ccc2ncc(C#N)c(CCN3CCC(NCc4ccc([N+](=O)[O-])cc4)CC3)c2c1 [VT-03-00045]	–	–	–	–	0.06 µg/mL (≈ 0.135 µM)	0.12 µg/mL (≈ 0.269 µM)	0.5 µg/mL (≈ 1.12 µM)	4 µg/mL (≈ 8.98 µM)	2 µg/mL (≈ 4.49 µM)	32 µg/mL (≈ 71.8 µM)	96.5%	96.5%
COc1ccc2ncc(C#N)c(CCN3C[C@@H]4C[C@H]3CN4CNc3ccc4c(c3)OCCO4)c2c1 [VT-03-00028]	> 32 µg/mL	–	–	–	0.25 µg/mL (≈ 0.53 µM)	0.5 µg/mL (≈ 1.06 µM)	0.25 µg/mL (≈ 0.53 µM)	1 µg/mL (≈ 2.12 µM)	4 µg/mL (≈ 8.48 µM)	> 32 µg/mL	–	–
Cc1ccc(CNC2CCN(CCN3C(=O)CNc4ccc(Cl)nc43)CC2)cc1F [VT-03-00107]	–	0.06 µg/mL (≈ 0.139 µM)	1 µg/mL (≈ 2.32 µM)	0.5 µg/mL (≈ 1.16 µM)	–	–	–	–	–	–	–	–

Now from value to molecule, other results behind:

MIC [6]	MIC [2, 9]	MIC (E. coli (ATCC 25922); [10])	MIC (E. faecalis ATCC 51299)	SMILES	MIC [1]	MIC [2, 7]	MIC [3]	MIC [4]	MIC [5]	MIC (E. coli (ATCC 25922); [8])	inhibition at 0.1 µM (E. coli Gyrase)	inhibition at 1 µM (E. coli Gyrase)
32 µg/mL (≈ 69 µM)	–	–	–	COc1ccc2ncc(C#N)c(CCN3CCC(NCc4ccc([N+](=O)[O-])c(F)c4)CC3)c2c1 [VT-03-00054]	0.03 µg/mL (≈ 0.0647 µM)	0.12 µg/mL (≈ 0.259 µM)	0.5 µg/mL (≈ 1.08 µM)	2 µg/mL (≈ 4.31 µM)	1 µg/mL (≈ 2.16 µM)	8 µg/mL (≈ 17.3 µM)	–	–
> 32 µg/mL	–	–	–	COc1ccc2ncc(C#N)c(CCN3CCC(NCc4cc([N+](=O)[O-])ccc4O)CC3)c2c1 [VT-03-00059]	0.25 µg/mL (≈ 0.542 µM)	1 µg/mL (≈ 2.17 µM)	2 µg/mL (≈ 4.33 µM)	8 µg/mL (≈ 17.3 µM)	8 µg/mL (≈ 17.3 µM)	> 32 µg/mL	–	–
> 16 µg/mL	–	–	–	COc1ccc2ncc(C#N)c(CCN3CCC(NCc4cc(C)cc([N+](=O)[O-])c4C)CC3)c2c1 [VT-03-00075]	0.12 µg/mL (≈ 0.253 µM)	0.12 µg/mL (≈ 0.253 µM)	0.06 µg/mL (≈ 0.127 µM)	0.5 µg/mL (≈ 1.06 µM)	0.5 µg/mL (≈ 1.06 µM)	4 µg/mL (≈ 8.45 µM)	–	–
–	0.06 µg/mL (≈ 0.119 µM)	2 µg/mL (≈ 3.96 µM)	0.5 µg/mL (≈ 0.989 µM)	Cc1ccc(CNC2CCN(CCn3c(=O)cnc4ccc(OC(F)(F)F)cc43)CC2)cc1[N+](=O)[O-] [VT-03-00114]	–	–	–	–	–	–	–	–
> 32 µg/mL	–	–	–	COc1ccc2ncc(=O)n(CCN3CCC(NCc4ccc(F)c([N+](=O)[O-])c4)CC3)c2c1 [VT-03-00056]	0.25 µg/mL (≈ 0.549 µM)	0.5 µg/mL (≈ 1.1 µM)	0.25 µg/mL (≈ 0.549 µM)	8 µg/mL (≈ 17.6 µM)	1 µg/mL (≈ 2.2 µM)	4 µg/mL (≈ 8.78 µM)	–	–
> 32 µg/mL	–	–	–	Cc1ccc(CNC2CCN(CCn3c(=O)ccc4ccc(C#N)cc43)CC2)cc1[N+](=O)[O-] [VT-03-00065]	0.25 µg/mL (≈ 0.561 µM)	1 µg/mL (≈ 2.24 µM)	4 µg/mL (≈ 8.98 µM)	> 32 µg/mL	> 32 µg/mL	> 32 µg/mL	–	–
> 16 µg/mL	–	–	–	CCc1ccc(CNC2CCN(CCc3c(C#N)cnc4ccc(OC)cc34)CC2)cc1[N+](=O)[O-] [VT-03-00076]	0.015 µg/mL (≈ 0.0317 µM)	0.03 µg/mL (≈ 0.0633 µM)	0.03 µg/mL (≈ 0.0633 µM)	0.25 µg/mL (≈ 0.528 µM)	0.25 µg/mL (≈ 0.528 µM)	2 µg/mL (≈ 4.22 µM)	–	–
> 16 µg/mL	–	–	–	COc1ccc2ncc(C#N)c(CCN3CCC(NCc4cc([N+](=O)[O-])ccc4F)CC3)c2c1 [VT-03-00050]	0.25 µg/mL (≈ 0.539 µM)	0.5 µg/mL (≈ 1.08 µM)	4 µg/mL (≈ 8.63 µM)	4 µg/mL (≈ 8.63 µM)	4 µg/mL (≈ 8.63 µM)	16 µg/mL (≈ 34.5 µM)	–	–
> 32 µg/mL	–	–	–	COc1ccc2ncc(OCCN3CCC(NCc4ccc(C)c([N+](=O)[O-])c4)CC3)nc2c1 [VT-03-00062a]	0.5 µg/mL (≈ 1.11 µM)	1 µg/mL (≈ 2.21 µM)	0.5 µg/mL (≈ 1.11 µM)	4 µg/mL (≈ 8.86 µM)	2 µg/mL (≈ 4.43 µM)	4 µg/mL (≈ 8.86 µM)	–	–
